We go through 2 compounds from article doi:10.64898/2025.12.18.695269, “Structural Basis of TACO1-Mediated Efficient Mitochondrial Translation” (bioRxiv, 2025).

The target of assay [1] is T1, TACO1 (Homo sapiens, UniProt Q9BSH4).
T1 construct: recombinant TACO1
Nature of the assay: fluorescence increase of BODIPY-labelled nucleotide, saturation fit. Format: binding. The settings on record: labelled compound; 500 nM TACO1, 0-30 μM ligand, 10 min.

The target of assay [2] is T1, TACO1. Nature of the assay: competition with BODIPY-FL-GTPγS fluorescence binding. To be noted: pre-incubation with GMPPNP before BODIPY-FL-GTPγS; competitive.

The term Kd denotes the concentration at which binding is half-saturated.

In turn, BODIPY-FL-GTPγS yielded a Kd on TACO1 [1] of 25 µM.

As for `Nc1nc2c(ncn2[C@@H]2O[C@H](COP(=O)(O)OP(=O)(O)NP(=O)(O)O)[C@@H](O)[C@H]2O)c(=O)[nH]1` [GMPPNP], the “competition with BODIPY-FL-GTPγS fluorescence binding” value on TACO1 [2] is listed as “This effect was abolished by pre-incubation with the non-hydrolyzable GTP analog GMPPNP”.
